Test results taken from patent US20260153494A1 (AGRICUL TURAL UNIVERSITY OF ATHENS, priority 2023, published 2026).
“And” between values parts separate entries of the source, which are not always exact repeats. Identical values can stand only once.

Experiments:
[1] = system: Immobilized FGGsh155:CB[8] hexamer (GSTF mutant sh155, FGG-tagged, SEQ ID NO: 2, with cucurbit[8]uril 1:1, on glutaraldehyde-crosslinked chitosan); assay: Butachlor inhibition (IC50) of immobilized FGGsh155:CB[8]; type: biochemical; details: immobilized on chitosan carrier vs free enzyme
Procedure: FIG. 21 (A-B): Dose-response inhibition curves of FGGsh155:CB[8] due to the herbicide butachlor for the determination of IC50 value. FIG. 21A. before and FIG. 21B. after immobilization. The data represent the mean±SD (N=3).
(§1) The half maximal inhibitory concentration (IC50), namely the inhibitor concentration that leads to 50% inhibition of the enzyme activity of FGGsh155:CB[8], was determined for constant substrate concentrations and varying butachlor concentrations. The utilised substrate concentrations were equal to the kinetic constant value of S0.5 for CDNB and 2.5 times the CDNB concentration for GSH. The correlation between the butachlor concentration from 0 to 600 nM (0 to 0.6 μM) and the remaining activity (%) of the immobilized enzyme was linear, thus standard curves for known herbicide concentrations were developed. The methodology was tested for drinking water samples derived from the Athens water supply network, as well as commercial mineral water (see Example 11). The results were analysed with the Graphpad Prism software.

[2] = system: sh155 dimer (phi class glutathione S-transferase GSTF mutant derived by DNA shuffling, SEQ ID NO: 2); assay: Kinetic inhibition analysis with butachlor, dimer sh155; type: biochemical; details: constant GSH, variable CDNB
Description: (§2) FIG. 22 (A-J): Kinetic inhibition analysis of the dimer enzyme sh155 (FIG. 22A, 22C, 22E, 22G, 22I) and the hexamer FGGsh155:CB[8] (FIGS. 22B, 22D, 22F, 22H, 22J). A. & B. Lineweaver-Burk plots for the inhibition of the enzymes by different concentrations of butachlor, at constant concentration of GSH and variable concentration of CDNB. C. & D. Secondary (derivative) graph. The slope values were derived from the Lineweaver-Burk graphs (A) & (B). The intersection point with the x axis corresponds to Ki. E. & F. Secondary (derivative) graph where the data are derived from the Lineweaver-Burk graphs (A) & (B). The intersection point with the x axis corresponds to K. G. & H. Lineweaver-Burk plots for the inhibition of the enzymes by different concentrations of butachlor, at constant concentration of CDNB and variable concentration of GSH. […]. Secondary (derivative) graph. The slope values were derived from the Lineweaver-Burk graphs […], and the intersection point with the x axis corresponds to Ki.
(§3) Kinetic analysis in presence of butachlor aimed to characterize of the type of inhibition, thus the binding site of the inhibitor, as well as to identify possible differences in kinetic behavior between the GST dimer form (sh155) and the hexamer FGGsh155:CB[8] that was used in the immobilization. […]

[3] = system: FGGsh155:CB[8] hexamer (FGG-tagged phi class glutathione S-transferase GSTF mutant sh155, SEQ ID NO: 2, with cucurbit[8]uril 1:1); assay: Kinetic inhibition analysis with butachlor, hexamer FGGsh155:CB[8]; type: biochemical; details: constant GSH, variable CDNB
Description: as §2, §3

FGGsh155:CB[8] = FGGsh155:CB[8] (Triticum aestivum, UniProt Z9G7Y6U750); assay: Inhibition of free FGGsh155:CB[8] by butachlor (IC50, kinetic inhibition analysis); type: biochemical
Procedure: as §1, with “The correlation between the butachlor concentration from 0 to 600 nM (0 to 0.6 μM) and the remaining activity (%) of the immobilized enzyme was linear, thus standard curves for known herbicide concentrations were developed.” left out
(§4) Kinetic analysis in presence of butachlor aimed to characterize of the type of inhibition, thus the binding site of the inhibitor, as well as to identify possible differences in kinetic behavior between the GST dimer form (sh155) and the hexamer FGGsh155:CB[8] that was used in the immobilization. […] In the mixed inhibition pattern all of the kinetic constants (Km, kcat) change, and the inhibitor is able to bind to both the free enzyme (Ki) and the enzyme-substrate complex (Ki′) with different affinities. […] This type of inhibition is a sub-case of the mixed inhibition pattern where Ki=Ki′, i.e. the velocity of the reaction is decreased without affecting the affinity with the substrate. In this inhibition type, the inhibitor and the substrate bind independently at different enzyme sites.

[4] = target: T1, immobilized FGGsh155:CB[8] (Triticum aestivum, UniProt Z9G7Y6U750); assay: Inhibition of immobilized FGGsh155:CB[8] by butachlor (IC50); type: biochemical; details: after immobilization on the chitosan carrier
Procedure: as §1

sh155 = sh155 (Triticum aestivum, UniProt Z9G7Y6U750); assay: Kinetic inhibition analysis of dimer sh155 by butachlor; type: biochemical
Description: as §4

[5] = target: T1, immobilized FGGsh155:CB[8]; assay: Determination of butachlor in spiked water samples with the immobilized enzyme biosensor
Procedure: as §1
The basis for the detection of the herbicide butachlor in water samples was the determination of inhibition induced in the immobilized enzyme form. […] The linear response of inhibition of the immobilized enzyme due to butachlor was described by the equation y=−101.3x+98.07, R^2=0.991 (FIG. 23A). This observation led to the development of a methodology for determination of butachlor in drinking water samples based on the detection of inhibition as determined by a standard reference curve. Accordingly, standard curves were generated for spiked, with known concentrations of butachlor, samples of drinking water from the Athens' supply network (y=−81.84x+98.81, R^2=0.997) and bottled mineral water (y=−72.69x+99.46, R^2=0.995) (FIG. 23B). The detection range of butachlor with this methodology was determined up to 180 μg/L (600 nM) in water samples, with the acceptable amount of a pesticide in surface water at 1.0 μg/L and in drinking water at 0.1 μg/L (Council Directive 98/83/EC). The detection range up to 0.6 μM (180 μg/L) of the developed biosensor, with detection limit at approximately 31 μg/L for butachlor, achieves comparatively high sensitivity and selectivity.
The methodology was evaluated with recovery experiments of spiked drinking water samples, with known but random concentrations of butachlor within the range of the standard curve. […] The correlation between the added and found butachlor tested concentrations for network supply water (R^2 0.9993, p<0.0001) and mineral water (R^2 0.9987, p<0.0001) is depicted in FIG. 23C & 23D.

[6] = buffer; cited from earlier work
human lymphocytes = details: cited from earlier work
[7] = towards CDNB (variable CDNB, constant GSH), binding to free enzyme
[8] = towards CDNB, binding to enzyme-substrate complex
[9] = towards GSH (variable GSH, constant CDNB)

For `CCCCOCN(C(=O)CCl)c1c(CC)cccc1CC` [Butachlor, 2-chloro-2,6-diethyl-N-butoxymethyl-acetanilide], the “increase in sensitivity for butachlor after immobilization (IC50 immobilized vs free enzyme)” value [1] was “ten-fold increase in sensitivity”, the “type of inhibition towards CDNB” value [2] was “mixed type inhibition with Ki<Ki′” and the “type of inhibition towards CDNB” value [3] was “mixed type inhibition with Ki<Ki′”.
In the case of `CCCCOCN(C(=O)CCl)c1c(CC)cccc1CC` [butachlor, 2-chloro-2,6-diethyl-N-butoxymethyl-acetanilide], the “type of inhibition towards GSH” value (FGGsh155:CB[8]) is reported as “non-competitive inhibition”, the “type of inhibition towards the CDNB substrate” value (FGGsh155:CB[8]) is reported as “mixed type inhibition” and the IC50 (FGGsh155:CB[8]; free enzyme, before immobilization) is reported as 5.14 ± 0.16 µM. The Ki (FGGsh155:CB[8]; [7]) was 4.42 µM, the Ki (FGGsh155:CB[8]; [8]) was 21.1 µM and the Ki (FGGsh155:CB[8]; [9]) was 13.2 µM. The IC50 [4] was 0.56 ± 0.02 µM, the “type of inhibition towards GSH” value (sh155) was “non-competitive inhibition” and the “type of inhibition towards the CDNB substrate” value (sh155) was “mixed type inhibition”. The Ki (sh155; [7]) was 5.92 µM, the Ki (sh155; [8]) was 22.6 µM and the Ki (sh155; [9]) was 13.3 µM. The Found butachlor ([5]; Athens water supply network, added 0.05 μM) was 0.046 ± 0.003 µM, the Found butachlor ([5]; Athens water supply network, added 0.2 μM) was 0.191 ± 0.001 µM and the Found butachlor ([5]; Athens water supply network, added 0.3 μM) was 0.308 ± 0.008 µM. It also gave a Found butachlor ([5]; Athens water supply network, added 0.4 μM) of 0.416 ± 0.005 µM, a Found butachlor ([5]; Athens water supply network, added 0.6 μM) of 0.617 ± 0.003 µM and a Found butachlor ([5]; Bottled mineral water, added 0.1 μM) of 0.095 ± 0.005 µM. It also gave a Found butachlor ([5]; Bottled mineral water, added 0.2 μM) of 0.215 ± 0.005 µM, a Found butachlor ([5]; Bottled mineral water, added 0.3 μM) of 0.307 ± 0.005 µM and a Found butachlor ([5]; Bottled mineral water, added 0.4 μM) of 0.413 ± 0.012 µM. The Found butachlor ([5]; Bottled mineral water, added 0.55 μM) was 0.56 ± 0.010 µM, the detection limit ([5]; developed biosensor) was “approximately 31 μg/L” and the detection range ([5]; water samples) was “up to 180 μg/L and ≤ 600 nM”. For the same compound, the half-life [6] was “up to 2.5 days” and the “frequency of chromosomal abnormalities” value (human lymphocytes) was “dose-dependent increase in the frequency of chromosomal abnormalities”.
